Test results taken from PMC9137552, “Structural Characterization of Two Short Unspecific Peroxygenases: Two Different Dimeric Arrangements” (Antioxidants, 2022).
Read-outs that look alike come from different tables or passages of the source. Values belong to the compound of their own block, whether it stands above or below them.

Key:
[1] = target: recombinant unspecific peroxygenase from Collariella virescens (rCviUPO), native (nonmutated) (Collariella virescens); test: AUC + other: dynamic light scattering; sedimentation velocity, c(s) distributions (SEDFIT); diffusion coefficients from parallel DLS; molecular mass by the Svedberg equation
[2] = target: recombinant unspecific peroxygenase from Collariella virescens (rCviUPO), native (nonmutated) (Collariella virescens); test: SEC; Superdex 75, isocratic elution with 10 mM Tris (pH 7.4), 0.15 M NaCl; masses against standards, compared with SDS-PAGE with mercaptoethanol; P201stop analysed during its last purification step
[3] = target: rCviUPO K228stop variant (C-terminal tail deletion) (Collariella virescens); test: AUC + other: dynamic light scattering; sedimentation velocity, c(s) distributions (SEDFIT); diffusion coefficients from parallel DLS; molecular mass by the Svedberg equation
[4] = target: rCviUPO C235A variant (Collariella virescens); test: as above
rCviUPO [5] = test system: T1, rCviUPO; test: initial rates, absorbance at […] nm, Michaelis-Menten fit; assay type: biochemical, Collariella virescens; conditions: 1 mM H2O2; 0.1 M acetate pH 3
T1 construct: gene CviUPO; mature enzyme without signal peptide, initial Met added, no tag, codon-optimised in pET23a, E. coli BL21, non-glycosylated; homodimer, monomer 26-27 kDa; known only as recombinant enzyme; short UPO

rCviUPO [6] = test system: T1, rCviUPO; test: as above; assay type: biochemical, Collariella virescens; conditions: 1 mM H2O2; pH 4.0 (table note; methods text gives pH 3 or 5); read-out: C235A
rMroUPO [7] = test system: T2, rMroUPO; test: as above; assay type: biochemical, Marasmius rotula; conditions: 5 mM H2O2; 0.1 M acetate pH 4.6
T2 construct: gene MroUPO; mature enzyme without signal peptide, initial Met added, no tag, codon-optimised in pET23a, E. coli BL21, non-glycosylated; homodimer (C227-C227' disulfide), monomer 26-27 kDa; short UPO

rCviUPO [8] = test system: T1, rCviUPO; test: as above; assay type: biochemical, Collariella virescens; conditions: K228stop variant; 1 mM H2O2; pH 4.0 (table note; methods text gives pH 3 or 5)
rCviUPO [9] = test system: T1, rCviUPO; test: as above; assay type: biochemical, Collariella virescens; conditions: K228stop variant; 1 mM H2O2; 0.1 M tartrate pH 5.0
rMroUPO [10] = test system: T2, rMroUPO; test: as above; assay type: biochemical, Marasmius rotula; conditions: 5 mM H2O2; 0.1 M tartrate pH 4.0
rCviUPO [11] = test system: T1, rCviUPO; test: as above; assay type: biochemical, Collariella virescens; conditions: 1 mM H2O2; 0.1 M tartrate pH 5.0; read-out: C235A
rCviUPO [12] = test system: T1, rCviUPO; test: as above; assay type: biochemical, Collariella virescens; conditions: 1 mM H2O2; 0.1 M tartrate pH 5.0
[13] = target: recombinant unspecific peroxygenase from Marasmius rotula (rMroUPO), native (nonmutated) (Marasmius rotula); test: SEC; Superdex 75, isocratic elution with 10 mM Tris (pH 7.4), 0.15 M NaCl; masses against standards, compared with SDS-PAGE with mercaptoethanol; P201stop analysed during its last purification step
rMroUPO [14] = test system: T2, rMroUPO; test: initial rates, absorbance at […] nm, Michaelis-Menten fit; assay type: biochemical, Marasmius rotula; conditions: 5 mM H2O2; 0.1 M acetate pH 5.0
rCviUPO [15] = test system: T3, rCviUPO; conditions: read-out: K228stop; K228stop variant; 1 mM H2O2; 0.1 M acetate pH 4.0
T3 construct: gene CviUPO

rCviUPO [16] = test system: T3, rCviUPO; conditions: read-out: C235A; 1 mM H2O2; 0.1 M acetate pH 4.0

- stoichiometry N [4]: 2
Compound: rCviUPO C235A variant (enzyme)

- stoichiometry N [13]: 2
Compound: recombinant unspecific peroxygenase from Marasmius rotula (rMroUPO), native (nonmutated) (enzyme)

- Km (rMroUPO [14]): 246 ± 3 µM
- Km (rCviUPO [15]): 110 ± 15 µM
- Km (rCviUPO [16]): 87 ± 7 µM
Compound: CCn1c(=NN=c2sc3cc(S(=O)(=O)O)ccc3n2CC)sc2cc(S(=O)(=O)O)ccc21 [ABTS, 2,2′-azino-bis(3-ethylbenzothiazoline-6-sulfonic acid)]

Further lines, the compound ahead of its results:

Compound: recombinant unspecific peroxygenase from Collariella virescens (rCviUPO), native (nonmutated) (enzyme)
- stoichiometry N [1]: 2
- stoichiometry N [2]: 2

Compound: rCviUPO K228stop variant (C-terminal tail deletion) (domain or fragment)
- stoichiometry N [3]: 2

Compound: COc1ccc(CO)cc1OC [Veratryl alcohol]
- Km (rCviUPO [5]): 2940 ± 160 µM
- Km (rCviUPO [6]): 7240 ± 820 µM
- Km (rMroUPO [7]): 54.2 ± 16.7 µM
- Km (rCviUPO [8]): 55300 µM

Compound: COc1cccc(OC)c1O [DMP, 2,6-dimethoxyphenol]
- Km (rCviUPO [9]): 3720 ± 250 µM
- Km (rMroUPO [10]): 206 ± 38 µM
- Km (rCviUPO [11]): 4500 ± 424 µM
- Km (rCviUPO [12]): 4930 ± 470 µM
